Active and inactive are the calls of the source. The calls are words filed in the database; no cut-off is given here.
Key:
HeLa [1] = assay: Antiproliferative activity against human HeLa cells assessed as cell viability at 0.001 to 100 uM incubated for 48 hrs by MTT assay; assay type: functional, cell-based; details: dose 0.001-100 µM
[2] = target: T1, Tubulin beta (Homo sapiens) (UniProt P68371+Q9H4B7+Q13509+P04350+Q3ZCM7+P07437+Q13885+Q9BVA1+Q9BUF5+A6NNZ2); assay: Induction of Beta tubulin degradation in human HeLa cells at 0.001 to 100 uM incubated for 16 hrs by immunoblotting analysis; assay type: cell-based; details: dose 0.001-100 µM
HeLa [3] = assay: Antiproliferative activity against human Hela cells assessed as cell viability at 0.001 to 100 microM incubated for 72 hrs by MTT assay; assay type: functional, cell-based; details: dose 0.001-100 µM
NCI-H460 [4] = assay: Antiproliferative activity against human NCI-H460 cells assessed as cell viability at 0.001 to 100 uM incubated for 72 hrs by MTT assay; assay type: functional, cell-based; details: dose 0.001-100 µM
HCT-116 [5] = assay: Antiproliferative activity against human HCT-116 cells assessed as cell viability at 0.001 to 100 uM incubated for 72 hrs by MTT assay; assay type: functional, cell-based; details: dose 0.001-100 µM
HeLa [6] = assay: Induction of apoptosis in human HeLa cells assessed as accumulation of cells at G2/M phase 0.1 to 10 uM incubated for 16 hrs by propidium iodide staining based flow cytometry; assay type: functional, cell-based; details: dose 0.1-10 µM
HCT-116 [7] = assay: Induction of apoptosis in human HCT-116 cells assessed as accumulation of cells at G2/M phase 0.1 to 10 uM incubated for 16 hrs by propidium iodide staining based flow cytometry; assay type: functional, cell-based; details: dose 0.1-10 µM
NCI-H460 [8] = assay: In vivo antitumor activity against human NCI-H460 cells xenografted in Balb/c nude athymic mouse assessed as inhibition of tumor growth administered ip once a week and measured every 2 days for 24 days; assay type: functional, organism-based; details: dose 10-40 mg/kg, time 2.0 day, DDE = dose-dependent effect
HCT-116 [9] = assay: In vivo antitumor activity against human HCT-116 cells xenografted in Balb/c nude athymic mouse assessed as inhibition of tumor growth administered ip once a week and measured every 2 days for 24 days; assay type: functional, organism-based; details: dose 10-40 mg/kg, time 2.0 day, DDE = dose-dependent effect
HeLa [10] = assay: Downregulation of Alpha tubulin level in human HeLa cells at 1 uM measured for 6 hrs by tandem mass tag quantitative proteomic analysis; assay type: functional, cell-based
HeLa [11] = assay: Downregulation of Beta tubulin level in human HeLa cells at 1 uM measured for 6 hrs by tandem mass tag quantitative proteomic analysis; assay type: functional, cell-based
HeLa [12] = assay: Downregulation of Alpha tubulin level in human HeLa cells incubated for 24 hrs by immunoblot analysis; assay type: functional, cell-based; details: dose 0.1-10 µM, DDE = dose-dependent effect
HeLa [13] = assay: Downregulation of Beta tubulin level in human HeLa cells incubated for 24 hrs by immunoblot analysis; assay type: functional, cell-based; details: dose 0.1-10 µM, DDE = dose-dependent effect
HCT-116 [14] = assay: Downregulation of Alpha tubulin level in human HCT-116 cells incubated for 24 hrs by immunoblot analysis; assay type: functional, cell-based; details: dose 0.1-10 µM, DDE = dose-dependent effect
HCT-116 [15] = assay: Downregulation of Beta tubulin level in human HCT-116 cells incubated for 24 hrs by immunoblot analysis; assay type: functional, cell-based; details: dose 0.1-10 µM, DDE = dose-dependent effect
NCI-H460 [16] = assay: Downregulation of Alpha tubulin level in human NCI-H460 cells incubated for 24 hrs by immunoblot analysis; assay type: functional, cell-based; details: dose 0.1-10 µM, DDE = dose-dependent effect
NCI-H460 [17] = assay: Downregulation of Beta tubulin level in human NCI-H460 cells incubated for 24 hrs by immunoblot analysis; assay type: functional, cell-based; details: dose 0.1-10 µM, DDE = dose-dependent effect
SU-DHL-6 [18] = assay: Downregulation of Alpha tubulin level in human SU-DHL-6 cells incubated for 24 hrs by immunoblot analysis; assay type: functional, cell-based; details: dose 0.1-10 µM, DDE = dose-dependent effect
SU-DHL-6 [19] = assay: Downregulation of Beta tubulin level in human SU-DHL-6 cells incubated for 24 hrs by immunoblot analysis; assay type: functional, cell-based; details: dose 0.1-10 µM, DDE = dose-dependent effect
HeLa [20] = assay: Downregulation of Alpha tubulin level in human HeLa cells at 1 uM by immunoblot analysis; assay type: functional, cell-based; details: time 1-16 hrs, TDE = time-dependent effect
HeLa [21] = assay: Downregulation of Beta tubulin level in human HeLa cells at 1 uM by immunoblot analysis; assay type: functional, cell-based; details: time 1-16 hrs, TDE = time-dependent effect
HCT-116 [22] = assay: Downregulation of Alpha tubulin level in human HCT-116 cells at 1 uM by immunoblot analysis; assay type: functional, cell-based; details: time 1-16 hrs, TDE = time-dependent effect
HCT-116 [23] = assay: Downregulation of Beta tubulin level in human HCT-116 cells at 1 uM by immunoblot analysis; assay type: functional, cell-based; details: time 1-16 hrs, TDE = time-dependent effect
HeLa [24] = assay: Reduction in Alpha tubulin mRNA expression in human HeLa cells at 1 uM measured upto 16 hrs by qPCR analysis; assay type: functional, cell-based
HeLa [25] = assay: Reduction in Beta tubulin mRNA expression in human HeLa cells at 1 uM measured upto 16 hrs by qPCR analysis; assay type: functional, cell-based
HCT-116 [26] = assay: In vivo antitumor activity against human HCT-116 cells xenografted in mouse model assessed as reduction in alpha tubulin level at 80 mg/kg administered once through tail vein injection measured after 24 hrs by immunoblot analysis; assay type: functional, organism-based
HCT-116 [27] = assay: In vivo antitumor activity against human HCT-116 cells xenografted in mouse model assessed as reduction in beta tubulin level at 80 mg/kg administered once through tail vein injection measured after 24 hrs by immunoblot analysis; assay type: functional, organism-based
Tubulin (Sus scrofa) [28] = target: T2, Tubulin (Sus scrofa) (UniProt P02554+P02550); assay: Inhibition of porcine tubulin polymerization measured every 1 min for 30 mins in presence of GTP by microplate reader analysis; assay type: protein assay; details: dose 5-20 µM, DDE = dose-dependent effect
Tubulin alpha = assay: Induction of Alpha tubulin degradation in human HeLa cells incubated for 24 hrs by immunoblot analysis; assay type: cell-based
Tubulin beta = assay: Induction of Beta tubulin degradation in human HeLa cells incubated for 24 hrs by immunoblot analysis; assay type: cell-based
[29] = target: T3, Tubulin alpha (Homo sapiens) (UniProt P0DPH7+P68366+Q71U36+P68363+Q9BQE3+Q6PEY2+A6NHL2+Q9NY65); assay: Induction of Alpha tubulin degradation in human HeLa cells at 1 uM incubated for 16 hrs in presence of pironetin by immunoblot analysis; assay type: cell-based
[30] = target: T3, Tubulin alpha (Homo sapiens); assay: Induction of Alpha tubulin degradation in human HeLa cells at 1 uM incubated for 16 hrs in presence of vinblastine by immunoblot analysis; assay type: cell-based
[31] = target: T3, Tubulin alpha (Homo sapiens); assay: Induction of Alpha tubulin degradation in human HeLa cells at 1 uM incubated for 16 hrs in presence of maytansine by immunoblot analysis; assay type: cell-based
[32] = target: T1, Tubulin beta (Homo sapiens); assay: Induction of Beta tubulin degradation in human HeLa cells at 1 uM incubated for 16 hrs in presence of pironetin by immunoblot analysis; assay type: cell-based
[33] = target: T1, Tubulin beta (Homo sapiens); assay: Induction of Beta tubulin degradation in human HeLa cells at 1 uM incubated for 16 hrs in presence of maytansine by immunoblot analysis; assay type: cell-based
[34] = target: T1, Tubulin beta (Homo sapiens); assay: Induction of Beta tubulin degradation in human HeLa cells at 1 uM incubated for 16 hrs in presence of vinblastine by immunoblot analysis; assay type: cell-based
[35] = target: T1, Tubulin beta (Homo sapiens); assay: Binding affinity to Beta-tubulin colchicine binding site in human HeLa cells assessed as inhibition of tubulin-EBI adduct formation at 2 to 25 uM pretreated fo 1 hr with compound followed by EBI addition measured after 2 hrs by Western blotting analysis; assay type: cell-based; details: dose 2-25 µM, time 3.0 hrs
[36] = target: T3, Tubulin alpha (Homo sapiens); assay: Induction of Alpha tubulin degradation in human HeLa cells assessed as increase in ubiquitination level of Alpha tubulin at 1 to 10 uM incubated for 6 hrs by immunoblot analysis; assay type: cell-based; details: dose 1-10 µM
[37] = target: T1, Tubulin beta (Homo sapiens); assay: Induction of Beta tubulin degradation in human HeLa cells assessed as increase in ubiquitination level of Beta tubulin at 1 to 10 uM incubated for 6 hrs by immunoblot analysis; assay type: cell-based; details: dose 1-10 µM
Tubulin (Homo sapiens) [38] = target: T4, Tubulin (Homo sapiens) (UniProt P68371+Q9H4B7+P0DPH7+P68366+Q13509+Q71U36+P04350+Q3ZCM7+P07437+P68363+Q9BQE3+Q6PEY2+Q13885+Q9BVA1+Q9BUF5); assay: Induction of tubulin degradation in human HeLa cells assessed as ubiquitin of total protein at 0.01 to 100 uM incubated for 16 hrs by immunoblot analysis; assay type: cell-based; details: dose 0.01-100 µM
Tubulin (Homo sapiens) [39] = target: T4, Tubulin (Homo sapiens); assay: Induction of tubulin aggregation in human HeLa cells by size-exclusion chromatography; assay type: cell-based
Tubulin (Sus scrofa) [40] = target: T2, Tubulin (Sus scrofa); assay: Induction of porcine tubulin aggregation assessed as formation of spherical sized tubulin aggregates at 20 uM incubated for 4 hrs by TEM analysis; assay type: protein assay
Tubulin (Homo sapiens) [41] = target: T4, Tubulin (Homo sapiens); assay: Induction of tubulin […] (unknown origin) assessed as increase in turbidity at 5 to 20 uM measured every one min for 30 mins by absorbance based analysis; assay type: protein-complex assay; details: dose 5-20 µM
Tubulin (Homo sapiens) [42] = target: T4, Tubulin (Homo sapiens); assay: Destabilization of tubulin (unknown origin) assessed as melting temperature at 30 uM incubated for 20 mins by differential scanning fluorimetry; assay type: protein-complex assay
[43] = tested on: Tubulin beta (Homo sapiens), P68371+Q9H4B7+Q13509+P04350+Q3ZCM7+P07437+Q13885+Q9BVA1+Q9BUF5+A6NNZ2 [UNDEFINED MUTATION]; assay: Induction of FLAG tagged Beta tubulin (unknown origin) Y200F mutant transfected in human HeLa cells incubated for 16 hrs by immunoblotting analysis; assay type: cell-based
[44] = target: T1, Tubulin beta (Homo sapiens); assay: Induction of wild type flag tagged Beta tubulin (unknown origin) transfected in HeLa cells incubated for 16 hrs by immunoblotting analysis; assay type: cell-based
HeLa [45] = assay: Induction of FLAG tagged Beta tubulin E198G mutant (unknown origin) transfected in HeLa cells incubated for 16 hrs by immunoblotting analysis; assay type: cell-based; details: Homo sapiens
HeLa [46] = assay: Induction of FLAG tagged Beta tubulin E198Q mutant (unknown origin) transfected in HeLa cells incubated for 16 hrs by immunoblotting analysis; assay type: cell-based; details: Homo sapiens
[47] = tested on: Tubulin beta (Homo sapiens), P68371+Q9H4B7+Q13509+P04350+Q3ZCM7+P07437+Q13885+Q9BVA1+Q9BUF5+A6NNZ2 [UNDEFINED MUTATION]; assay: Induction of FLAG tagged Beta tubulin E198D mutant (unknown origin) transfected in HeLa cells incubated for 16 hrs by immunoblotting analysis; assay type: cell-based

T2 sequence (P02550 whole entry, looked up): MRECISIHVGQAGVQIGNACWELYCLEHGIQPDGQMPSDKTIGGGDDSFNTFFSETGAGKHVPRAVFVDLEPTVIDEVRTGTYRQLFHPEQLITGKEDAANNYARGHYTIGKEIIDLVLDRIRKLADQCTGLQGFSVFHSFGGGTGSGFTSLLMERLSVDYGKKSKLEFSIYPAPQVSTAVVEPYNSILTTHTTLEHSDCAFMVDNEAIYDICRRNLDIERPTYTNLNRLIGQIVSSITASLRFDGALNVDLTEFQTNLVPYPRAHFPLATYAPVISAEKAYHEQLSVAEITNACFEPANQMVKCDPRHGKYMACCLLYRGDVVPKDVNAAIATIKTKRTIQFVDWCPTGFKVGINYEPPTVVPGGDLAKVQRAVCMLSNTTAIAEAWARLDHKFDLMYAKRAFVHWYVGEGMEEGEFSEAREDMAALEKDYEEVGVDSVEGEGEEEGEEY
T2 sequence (P02554 whole entry, looked up): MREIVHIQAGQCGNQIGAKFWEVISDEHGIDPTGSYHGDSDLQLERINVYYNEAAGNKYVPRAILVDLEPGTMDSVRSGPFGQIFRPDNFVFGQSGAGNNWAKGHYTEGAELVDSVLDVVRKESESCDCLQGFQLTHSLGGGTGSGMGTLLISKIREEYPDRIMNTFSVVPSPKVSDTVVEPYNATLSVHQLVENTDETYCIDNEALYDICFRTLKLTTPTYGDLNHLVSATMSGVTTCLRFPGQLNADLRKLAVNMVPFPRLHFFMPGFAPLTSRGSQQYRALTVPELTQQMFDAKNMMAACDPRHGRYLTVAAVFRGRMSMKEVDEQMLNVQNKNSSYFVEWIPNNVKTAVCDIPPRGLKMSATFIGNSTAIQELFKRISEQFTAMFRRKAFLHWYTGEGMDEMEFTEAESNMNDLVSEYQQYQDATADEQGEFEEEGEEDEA

c1ccc(Oc2cccc(CCc3cc4c(cn3)[nH]c3ccccc34)c2)cc1
Activity (HeLa [1]): Active | Activity [2]: Active

c1ccc2c(c1)[nH]c1cnc(NCC3CCCCC3)cc12
Activity (HeLa [1]): Active | Activity [2]: Active

c1ccc(CNc2cc3c(cn2)[nH]c2ccccc23)cc1
Activity (HeLa [1]): Active | Activity [2]: Active

c1ccc(Oc2cccc(CNc3cc4c(cn3)[nH]c3ccccc34)c2)cc1
Activity (HeLa [3]): Active | Activity (NCI-H460 [4]): Active | Activity (HCT-116 [5]): Active | Activity (HeLa [6]): Active | Activity (HCT-116 [7]): Active | Activity (NCI-H460 [8]): Dde | Activity (HCT-116 [9]): Dde | Activity (HeLa [10]): Active | Activity (HeLa [11]): Active | Activity (HeLa [12]): Dde | Activity (HeLa [13]): Dde | Activity (HCT-116 [14]): Dde | Activity (HCT-116 [15]): Dde | Activity (NCI-H460 [16]): Dde | Activity (NCI-H460 [17]): Dde | Activity (SU-DHL-6 [18]): Dde | Activity (SU-DHL-6 [19]): Dde | Activity (HeLa [20]): Tde | Activity (HeLa [21]): Tde | Activity (HCT-116 [22]): Tde | Activity (HCT-116 [23]): Tde | Activity (HeLa [24]): Active | Activity (HeLa [25]): Active | Activity (HCT-116 [26]): Active | Activity (HCT-116 [27]): Active | inhibition (Tubulin (Sus scrofa) [28]): Dde | DC50 (Tubulin alpha): 182 nM | DC50 (Tubulin beta): 524 nM | Activity [29]: Active | Activity [30]: Active | Activity [31]: Active | Activity [32]: Active | Activity [33]: Active | Activity [34]: Active | Activity [35]: Active | Activity [36]: Active | Activity [37]: Active | Activity (Tubulin (Homo sapiens) [38]): Active | Activity (Tubulin (Homo sapiens) [39]): Active | Activity (Tubulin (Sus scrofa) [40]): Active | Activity (Tubulin (Homo sapiens) [41]): Active | Tm (Tubulin (Homo sapiens) [42]): 51.5 °C | Activity [43]: Active | Activity [44]: Active | Activity (HeLa [45]): Active | Activity (HeLa [46]): Active | Activity [47]: Active

— ChEMBL document CHEMBL5143724, “Small Molecules Promote Selective Denaturation and Degradation of Tubulin Heterodimers through a Low-Barrier Hydrogen Bond” (J Med Chem, 2022)
